According to patent US20120282187A1 (BOEHRINGER INGELHEIM INTERNATIONAL GMBH, priority 2008, published 2012):
Like-named read-outs stand apart in the source and are kept apart here.

Assays:
[1] = test system: patients with chronic atrial fibrillation; assay: PETRO phase 2 12-week dose finding study; type: in vivo, human
Description: Primary endpoints were bleeding events and changes in D-dimer. […] Minor bleeding was dose related.

[2] = Clinical pharmacokinetics and pharmacodynamics of dabigatran etexilate; type: in vivo
Description: Ezekowitz M D, et al., Dabigatran with or without concomitant aspirin compared with warfarin alone in patients with nonvalvular atrial fibrillation (PETRO study), Am. […] The PETRO study is described below.
As noted above, management of warfarin therapy is complex, and failure to adequately monitor patients is associated with risk. […] It also interacts with many common foods, drugs and alcohol which alter its therapeutic effect, putting patients at risk of either a bleeding or thrombotic event. Therefore, warfarin therapy requires careful individualized dosing and frequent monitoring. The significant limitations of VKAs have created a need for an oral anticoagulant with a rapid onset of action, minimal drug interactions, and a predictable anticoagulation effect that needs no monitoring.
(§1) Peak levels are seen within 2-3 hours of oral administration. […] Steady-state is reached within 2-3 days with a twice daily regimen. […] The remainder undergoes conjugation with glucuronic acid to form acylglucuronides which are excreted primarily in the bile.

[3] = test system: cytochrome P-450 drug metabolizing enzymes; assay: Cytochrome P-450 interaction; type: in vitro ADME
Protocol: as §1

[4] = Solid state and solubility properties; type: physicochemical
[5] = test system: patients with atrial fibrillation
Protocol: The PETRO-Ex study was conducted in 52 centers in the United States, Denmark, The Netherlands, and Sweden.
PETRO-Ex began while the PETRO study was ongoing and investigators were initially kept blinded to patient treatment group until PETRO was completed. Unblinding investigators to patient treatment was possible thereafter.
Data were summarized descriptively; no hypothesis was to be tested. Events were analyzed on the basis of the treatment at onset. Incidences were reported as of patients with events as well as normalized to 100 patient-years on the respective treatment.
Patients who were down titrated to 50 mg q.d. based on a glomerular filtration rate≦50 mL/min during PETRO were excluded from the long-term trial; patients down-titrated in other dose levels remained on the q.d. treatment at that dose.
The total exposure reflects both trials, PETRO and PETRO-Ex, together.

CCCCCCOC(=O)NC(=N)c1ccc(NCc2nc3cc(C(=O)N(CCC(=O)OCC)c4ccccn4)ccc3n2C)cc1 [Dabigatran etexilate, 1-methyl-2-[N-[4-(N-n-hexyloxycarbonylamidino)phenyl]aminomethyl]benzimidazol-5-ylcarboxylic acid-N-(2-pyridyl)-N-(2-ethoxycarbonylethyl)amides]
Major bleeding events ([1]; 300 mg b.i.d. plus ASA groups): 6%
major bleeding events, number ([1]; 300 mg b.i.d. plus ASA groups): Four
Minor bleeding ([1]; 50, 150, 300 mg b.i.d.): dose related
Elevated transaminases >3× upper limit of normal (ULN) ([1]; all dabigatran etexilate-treated patients): 0.9%
Elevated transaminases >3× upper limit of normal (ULN), number of patients ([1]; of 432 dabigatran etexilate-treated patients): 4
effect of oral strong P-gp inhibitors verapamil, quinidine or amiodarone on dabigatran plasma concentrations ([2]; concomitant with dabigatran etexilate): elevate dabigatran plasma concentrations
food interactions ([2]; in vivo): no food interactions
onset of anticoagulant effect ([2]; time after dosing): one
metabolism by, induction or inhibition of cytochrome P-450 drug metabolizing enzymes [3]: not metabolized by and does not induce or inhibit
hygroscopicity [4]: hygroscopic
solubility in water [4]: sparingly soluble in water
ALT or AST >2xULN, number ([5]; 50 mg b.i.d.): 0
ALT or AST >3xULN and Bili >2xULN within 30 days, number ([5]; 50 mg b.i.d.): 0
ALT or AST >3xULN, number ([5]; 50 mg b.i.d.): 0
ALT or AST >5xULN, number ([5]; 50 mg b.i.d.): 0
Adverse Events leading to premature discontinuation, number ([5]; 50 mg b.i.d.): 5
Adverse Events leading to premature discontinuation, rate ([5]; 50 mg b.i.d.): 21.3 per 100 patient-years
MI, number ([5]; 50 mg b.i.d.): 0
Major Bleeds with aspirin, number ([5]; 50 mg b.i.d.): 0
Major Bleeds without aspirin, number ([5]; 50 mg b.i.d.): 0
Major Bleeds, number ([5]; 50 mg b.i.d.): 0
Other MACE, number ([5]; 50 mg b.i.d.): 2
Stroke and Systemic Thromboembolism, number ([5]; 50 mg b.i.d.): 3
TIA, number ([5]; 50 mg b.i.d.): 0
ALT or AST >2xULN, number ([5]; 50 mg q.d.): 0
ALT or AST >3xULN and Bili >2xULN within 30 days, number ([5]; 50 mg q.d.): 0
ALT or AST >3xULN, number ([5]; 50 mg q.d.): 0
ALT or AST >5xULN, number ([5]; 50 mg q.d.): 0
Adverse Events leading to premature discontinuation, number ([5]; 50 mg q.d.): 0
MI, number ([5]; 50 mg q.d.): 0
Major Bleeds with aspirin, number ([5]; 50 mg q.d.): 0
Major Bleeds without aspirin, number ([5]; 50 mg q.d.): 0
Major Bleeds, number ([5]; 50 mg q.d.): 0
Other MACE, number ([5]; 50 mg q.d.): 0
Stroke and Systemic Thromboembolism, number ([5]; 50 mg q.d.): 0
TIA, number ([5]; 50 mg q.d.): 0
ALT or AST >2xULN, number ([5]; 150 mg b.i.d.): 21
ALT or AST >2xULN, rate ([5]; 150 mg b.i.d.): 3.1 per 100 patient-years
ALT or AST >3xULN and Bili >2xULN within 30 days, number ([5]; 150 mg b.i.d.): 3
ALT or AST >3xULN and Bili >2xULN within 30 days, rate ([5]; 150 mg b.i.d.): 0.4 per 100 patient-years
ALT or AST >3xULN, number ([5]; 150 mg b.i.d.): 13
ALT or AST >3xULN, rate ([5]; 150 mg b.i.d.): 1.9 per 100 patient-years
ALT or AST >5xULN, number ([5]; 150 mg b.i.d.): 7
ALT or AST >5xULN, rate ([5]; 150 mg b.i.d.): 1.0 per 100 patient-years
Adverse Events leading to premature discontinuation, number ([5]; 150 mg b.i.d.): 67
Adverse Events leading to premature discontinuation, rate ([5]; 150 mg b.i.d.): 9.8 per 100 patient-years
MI, number ([5]; 150 mg b.i.d.): 6
Major Bleeds with aspirin, number ([5]; 150 mg b.i.d.): 11
Major Bleeds with aspirin, rate ([5]; 150 mg b.i.d.): 8.7 per 100 patient-years
Major Bleeds without aspirin, number ([5]; 150 mg b.i.d.): 18
Major Bleeds without aspirin, rate ([5]; 150 mg b.i.d.): 3.2 per 100 patient-years
Major Bleeds, number ([5]; 150 mg b.i.d.): 29
Major Bleeds, rate ([5]; 150 mg b.i.d.): 4.2 per 100 patient-years
Major bleeding events ([5]; 150 mg b.i.d.): 4.2 % per year
Other MACE, number ([5]; 150 mg b.i.d.): 7
Stroke and Systemic Thromboembolism, number ([5]; 150 mg b.i.d.): 7
TIA, number ([5]; 150 mg b.i.d.): 1
fatal major bleeds, number ([5]; 150 mg b.i.d.): 4
ALT or AST >2xULN, number ([5]; 150 mg q.d.): 2
ALT or AST >2xULN, rate ([5]; 150 mg q.d.): 3.4 per 100 patient-years
ALT or AST >3xULN and Bili >2xULN within 30 days, number ([5]; 150 mg q.d.): 0
ALT or AST >3xULN, number ([5]; 150 mg q.d.): 0
ALT or AST >5xULN, number ([5]; 150 mg q.d.): 0
Adverse Events leading to premature discontinuation, number ([5]; 150 mg q.d.): 8
Adverse Events leading to premature discontinuation, rate ([5]; 150 mg q.d.): 13.7 per 100 patient-years
MI, number ([5]; 150 mg q.d.): 0
Major Bleeds with aspirin, number ([5]; 150 mg q.d.): 0
Major Bleeds without aspirin, number ([5]; 150 mg q.d.): 3
Major Bleeds without aspirin, rate ([5]; 150 mg q.d.): 6.5 per 100 patient-years
Major Bleeds, number ([5]; 150 mg q.d.): 3
Major Bleeds, rate ([5]; 150 mg q.d.): 5.1 per 100 patient-years
Other MACE, number ([5]; 150 mg q.d.): 0
Stroke and Systemic Thromboembolism, number ([5]; 150 mg q.d.): 3
TIA, number ([5]; 150 mg q.d.): 0
ALT or AST >2xULN, number ([5]; 300 mg b.i.d.): 4
ALT or AST >2xULN, rate ([5]; 300 mg b.i.d.): 4.9 per 100 patient-years
ALT or AST >3xULN and Bili >2xULN within 30 days, number ([5]; 300 mg b.i.d.): 0
ALT or AST >3xULN, number ([5]; 300 mg b.i.d.): 2
ALT or AST >3xULN, rate ([5]; 300 mg b.i.d.): 2.4 per 100 patient-years
ALT or AST >5xULN, number ([5]; 300 mg b.i.d.): 1
